From publication PMC9098913, “In vitro reconstitution of Escherichia coli divisome activation” (Nature Communications, 2022)
Read-outs that look alike come from different tables or passages of the source.

Experiments:
[1] = test system: FtsZ filaments; assay: Slope of linear regression FtsZ vs FtsA intensity (packing of FtsA below FtsZ filaments); assay type: biochemical, E. coli; settings: for Slope of linear regression: Fig. S2h
Source text: While fluorescence microscopy cannot resolve molecular assemblies of these small dimensions, a higher packing density of FtsA R286W below FtsZ filaments could explain the enhanced colocalization with FtsZ. To test this hypothesis, we analysed the pixel-by-pixel relationship between the fluorescence intensities of FtsZ and FtsA in dual-colour fluorescence time-lapse movies. […] At low FtsA concentrations, we found the slopes for both proteins to be similar.

[2] = test system: FtsA/Z co-filaments; assay type: biochemical, E. coli; settings: Fig. 2g, mean
Method: By fitting an exponential function to the increase of the PCC with time, we were able to extract the corresponding recruitment rate (Fig. 2f, g).
Subsequently, the chamber was washed 6x with reaction buffer, to remove bulk peptide. To visualize colocalization with either FtsZ or FtsA, either a mix of FtsA and Alexa488-FtsZ or Cy3-FtsA and FtsZ was added. […] The time-lapse videos were recorded for 10 min after the addition, with one frame per 2 s.

[3] = Single-molecule membrane residence time of FtsA; assay type: binding; set-up: Single Molecule Lifetime: unit not given here; settings: for Single Molecule Lifetime, mean: mean of Exp. 1-3, n = 3, Fig. 3b
Method: First, we studied the behaviour of single FtsA proteins on the membrane surface.
After 5 min of incubation, single molecule time lapses were acquired every 125, 250, 500, and 1000 and 2000 ms, with an exposure time of 50 ms. Subsequently, the bulk concentration of FtsA was increased to 0.2/0.4/0.8 µM and time lapses were repeated as described above.
Single molecules of FtsA or FtsZ were tracked using the TrackMate plugin from ImageJ[43]. To obtain the residence time of FtsZ and FtsA, we performed a residence time analysis as described before[40],[47]. Shortly, single molecules were imaged at different acquisition rates (0.1–2 s) and the lifetime of the molecules was extracted from each data set. To account for photobleaching effect, the obtained lifetimes were plotted against the acquisition rate. […] Furthermore, we extracted the diffusion coefficient of FtsA single molecules at increasing concentrations. For this, we filtered the obtained data, by considering only trajectories which are present on the membrane for more than 0.4 s. […] Subsequently, the diffusion coefficient of FtsA molecules was estimated by fitting an MSD curve to each individual trajectory.

With “FtsA WT: wild-type E. coli actin-homologue FtsA, membrane anchor of FtsZ” the “Slope of linear regression FtsZ vs FtsA” value ([1]; 0.1 µM FtsA, mean) was 0.64, the “Slope of linear regression, mean of single experiment” value (“Slope … of single experiment” for short) ([1]; 0.1µM, replicate column 1) was 0.68 and the “Slope … of single experiment” value ([1]; 0.1µM, replicate column 2) was 0.37. For the same substance, the “Slope … of single experiment” value ([1]; 0.1µM, replicate column 3) was 0.74, the “Slope … of single experiment” value ([1]; 0.1µM, replicate column 4) was 0.70 and the “Slope of linear regression FtsZ vs FtsA” value ([1]; 0.2 µM FtsA, mean) was 0.45. For the same substance, the “Slope … of single experiment” value ([1]; 0.2µM, replicate column 1) was 0.40, the “Slope … of single experiment” value ([1]; 0.2µM, replicate column 2) was 0.56 and the “Slope … of single experiment” value ([1]; 0.2µM, replicate column 3) was 0.40. For the same substance, the “Slope … of single experiment” value ([1]; 0.4µM, replicate column 1) was 0.0747, the “Slope … of single experiment” value ([1]; 0.4µM, replicate column 2) was 0.0547 and the “Slope … of single experiment” value ([1]; 0.4µM, replicate column 3) was 0.49. The “Slope … of single experiment” value ([1]; 0.4µM, replicate column 4) was 0.31, the “Slope of linear regression FtsZ vs FtsA” value ([1]; 0.8 µM FtsA, mean) was 0.17 and the “Slope … of single experiment” value ([1]; 0.8µM, replicate column 1) was 0.16. For the same substance, the “Slope … of single experiment” value ([1]; 0.8µM, replicate column 2) was 0.15, the “Slope … of single experiment” value ([1]; 0.8µM, replicate column 3) was 0.23 and the “Slope … of single experiment” value ([1]; 0.8µM, replicate column 4) was 0.13. For the same substance, the “Slope of linear regression” value ([1]; + FtsN, 0.10 µM, mean) was 0.81 a.u, the “Slope of linear regression” value ([1]; + FtsN, 0.10 µM, replicate 1) was 0.84 a.u and the “Slope of linear regression” value ([1]; + FtsN, 0.10 µM, replicate 2) was 0.82 a.u. For the same substance, the “Slope of linear regression” value ([1]; + FtsN, 0.10 µM, replicate 3) was 0.78 a.u, the “Slope of linear regression” value ([1]; + FtsN, 0.20 µM, mean) was 0.65 a.u and the “Slope of linear regression” value ([1]; + FtsN, 0.20 µM, replicate 1) was 0.62 a.u. For the same substance, the “Slope of linear regression” value ([1]; + FtsN, 0.20 µM, replicate 2) was 0.61 a.u, the “Slope of linear regression” value ([1]; + FtsN, 0.20 µM, replicate 3) was 0.72 a.u and the “Slope of linear regression” value ([1]; + FtsN, 0.40 µM, mean) was 0.35 a.u. The “Slope of linear regression” value ([1]; + FtsN, 0.40 µM, replicate 1) was 0.43 a.u, the “Slope of linear regression” value ([1]; + FtsN, 0.40 µM, replicate 2) was 0.47 a.u and the “Slope of linear regression” value ([1]; + FtsN, 0.40 µM, replicate 3) was 0.13 a.u. The “Slope of linear regression” value ([1]; without FtsN, 0.10 µM, mean) was 0.70 a.u, the “Slope of linear regression” value ([1]; without FtsN, 0.10 µM, replicate 1) was 0.52 a.u and the “Slope of linear regression” value ([1]; without FtsN, 0.10 µM, replicate 2) was 0.85 a.u. For the same substance, the “Slope of linear regression” value ([1]; without FtsN, 0.10 µM, replicate 3) was 0.71 a.u, the “Slope of linear regression” value ([1]; without FtsN, 0.20 µM, mean) was 0.59 a.u and the “Slope of linear regression” value ([1]; without FtsN, 0.20 µM, replicate 1) was 0.55 a.u. For the same substance, the “Slope of linear regression” value ([1]; without FtsN, 0.20 µM, replicate 2) was 0.56 a.u, the “Slope of linear regression” value ([1]; without FtsN, 0.20 µM, replicate 3) was 0.66 a.u and the “Slope of linear regression” value ([1]; without FtsN, 0.40 µM, mean) was 0.16 a.u. For the same substance, the “Slope of linear regression” value ([1]; without FtsN, 0.40 µM, replicate 1) was 0.24 a.u, the “Slope of linear regression” value ([1]; without FtsN, 0.40 µM, replicate 2) was 0.066 a.u and the “Slope of linear regression” value ([1]; without FtsN, 0.40 µM, replicate 3) was 0.18 a.u. The “Recruitment rate of FtsN to FtsZ filaments” value (shortened to “Recruitment rate of FtsN”) ([2]; Concentration 0.10 µM) was 2.60, the “Recruitment rate of FtsN” value ([2]; Concentration 0.20 µM) was 1.05 and the “Recruitment rate of FtsN” value ([2]; Concentration 0.40 µM) was 0.99. The “Recruitment rate of FtsN” value ([2]; Concentration 0.80 µM) was 0.85, the “Single Molecule Lifetime” value ([3]; 0.1 µM FtsA, Exp. 1) was 15.60 and the “Single Molecule Lifetime” value ([3]; 0.1µM FtsA, Exp. 2) was 17.80. The “Single Molecule Lifetime” value ([3]; 0.1 µM FtsA, Exp. 3) was 24.80, the “Single Molecule Lifetime, mean” value ([3]; 0.1 µM FtsA) was 19.40 and the “mean residence time on the membrane” value ([3]; 0.1 µM FtsA, single-particle tracking, n = 3) was 19.4 ± 3.9 s. For the same substance, the “Single Molecule Lifetime” value ([3]; 0.2 µM FtsA, Exp. 1) was 13.20, the “Single Molecule Lifetime” value ([3]; 0.2µM FtsA, Exp. 2) was 21.50 and the “Single Molecule Lifetime” value ([3]; 0.2 µM FtsA, Exp. 3) was 28.80. The “Single Molecule Lifetime, mean” value ([3]; 0.2 µM FtsA) was 21.17.
